Experimental data published in patent US20070105162A1, “Monovalent avidin and streptavidin compositions” (Massachusetts Institute of Technology, priority 2005, published 2007).

How the values were obtained:
[1] = Electrospray ionization mass spectrometry: biotin molecules bound per streptavidin tetramer; assay type: binding; conditions: for # biotins (bound to each tetramer): from mass change upon addition of biotin, 30 μM protein, 200 μM biotin; for biotin binding per tetramer by mass spectrometry (in words): spectra with or without biotin
Protocol: Biospin columns (Bio-Rad) were equilibrated by spinning 5 times in 500 μL of 15 mM ammonium acetate pH 7.8 at 1000 g for 2 min. Then 30-50 μL of 30 μM protein in PBS was buffer-exchanged into 15 mM ammonium acetate pH 7.8 using the pre-equilibrated Biospin columns by spinning for 20 s at 1000 g. To ensure that PBS was completely removed, the flow-through was again buffer-exchanged with a second pre-equilibrated column for 20 s. This procedure also removed free biotin when the starting 30 μM streptavidin forms were incubated with 200 μM biotin. Less than 2 min before introducing into the mass spectrometer, the buffer-exchanged samples were diluted with a solution of 1:1 15 mM ammonium acetate pH 7.8 and 78% acetonitrile, 0.01% trifluoroacetic acid.
An Advion nanospray robot (Advion BioSystems, Ithica, N.Y.) with a back-pressure of 0.45 Psi introduced the samples into the mass spectrometer, an 8.5 Tesla custom-built Electrospray Ionisation-Fourier Transform Mass Spectrometer. To visualize the non-covalent tetramers and non-covalent biotin binding in the high m/z range, the following settings were used: Chirp rate=750 Hz, Amplitude=0.5 V p-p, Tube lens=200 V, Capillary heater 2 V, Quad filter=−20 V, Skimmer=0 V, Capillary offset=34 V, X-fer=−110 V, Leak gas=4.2×10^−5 Torr. The capillary heater was kept low and the Quad filter and Skimmer were kept either high or off to prevent subunit dissociation. The transfer was set to this low value of −110 V in order to visualize the high m/z region.
The masses were calculated manually by first determining the charge state. The final mass was determined by multiplying the observed m/z by the charge and subtracting the mass corresponding to the addition of protons to give that charge. For example, for the 15+charge state of D4 an m/z of 3534.159 was obtained. (15×3534.159)-(15×1.00727) gave a mass for this ion of 52,997 Da. This calculation was repeated for each charge state and the mean and standard deviation reported. The spectra were calibrated with tetrameric streptavidin, after its monomer mass was determined under denaturing conditions (Mr=13,271.4 Da). Average masses were predicted from the DNA sequence, using the ExPASy PeptideMass Calculator (ca.expasy.org/tools/peptide-mass.html) and assuming removal of the N-terminal formyl-Methionine.
The different tetramers were purified using a Ni-nitrilotriacetic acid (NTA) column, eluting according to the number of His6-tags with increasing concentrations of imidazole. […] The tetramer composition was further confirmed by boiling the samples before loading on SDS-PAGE, to determine the ratio of A to D subunits (FIG. 1D), and by electrospray ionization mass spectrometry. In Table 1 (Schwartz, B. L. et al., J. of the Amer. Soc. for Mass Spec. 6: 459-465, 1995) the observed mass (±s.d.), determined by Electrospray Ionization-Mass Spectrometry, is compared to the mass predicted from the sequence. From the change (±s.e.m.) upon addition of biotin (mass 244.31), we determined how many biotin molecules were bound to each tetramer.
Electrospray ionization mass spectrometry was used to characterize the number of biotin molecules bound per tetramer. Spectra of the different streptavidin tetramers with or without biotin were acquired. […] The other chimeric tetramers bound one biotin per A subunit.

[2] = tested on: biotinylated AP-CFP-TM on HeLa cells; assay: Staining of biotinylated AP-CFP-TM on HeLa with Alexa Fluor 568-conjugated avidins; assay type: cell-based; conditions: avidin, Alexa Fluor 568 conjugate
Protocol: Enzymatic biotinylation and imaging of HeLa transfectants are performed as previously described (Howarth, M. et al., Proc. Natl. Acad. Sci. USA 102: 7583-7588, 2005), except instead of 10 μM biotin and 1 mM ATP, we add 10 μM biotin-AMP (synthesized according to Coleman and Huang; Coleman, T. M. and Huang, F. Chem. Biol. 9: 1227-1236, 2002) to give equivalent biotinylation but minimizing the risk of purinoreceptor activation by ATP (Rathbone, M. P. et al., Prog. Neurobiol. 59: 663-690, 1999). […] Biotinylation of neurons is performed at day in vitro (DIV) 8 in Hanks' Balanced Salt Solution (HBSS) (Invitrogen) with 0.2 μM biotin ligase and 10 μM biotin-AMP for 5 min at 37° C. […] Neurons are washed with NeuroBasal media (Invitrogen) supplemented with B-27 (Invitrogen), 50 U/mL penicillin, 50 μg/mL streptomycin, and 0.2 mM L-glutamine and chased in the same medium for 0 or 2 hr at 37° C. Cells are then fixed in −20° C. methanol. There was no signal from wild-type avidin labeling if neurons were instead transfected with Ala-neuroligin-1 containing a point mutation in AP, confirming the specificity of labeling. […]
Images of HeLa cells are collected on a Zeiss Axiovert 200M inverted epifluorescence microscope using a 40× oil-immersion lens and a MicroMAX CCD camera (Roper Scientific; Tucson, Ariz.). CFP (420DF20 excitation, 450DRLP dichroic, 475DF40 emission) and Alexa568 (560DF20 excitation, 585DRLP dichroic, 605DF30 emission) images are collected and analyzed using OpenLab software (Improvision; Lexington, Mass.). Fluorescence images are background-corrected. […] Images are scaled to 16 bits and analyzed in Northern Eclipse (Empix Imaging; Ontario, Canada) with user-written software. […] Results are then calculated in terms of clusters per micrometer of dendrite. For assessment of pre-synaptic terminals, clusters are determined as before and average grey levels of clusters are compared between transfected dendrites and untransfected dendrites within the same field of view. […] “n” represents the number of transfected neurons for which clusters were measured. […]

biotin binding per tetramer by mass spectrometry (in words) [1]	Substance	# biotins (bound to each tetramer) [1]	Alexa staining of biotinylated AP-CFP-TM [2]
No biotin binding	D4: Streptavidin tetramer with 4 dead subunits (D: N23A, S27D, S45A, SEQ ID NO:3) [Tetramer D4]	0	no detectable staining
single biotin	A1D3: Monovalent streptavidin tetramer: one His6-tagged wild-type (A) subunit and three dead (D) subunits [Tetramer A1D3]	1	detected equally well
